# Test results as given in article PMC7911220, “Monoterpenoids from the Fruits of Amomum tsao-ko Have Inhibitory Effects on Nitric Oxide Production” (Plants, 2021).
# Read-outs that look alike come from different tables or passages of the source.
# Tests used:
# [1] = test system: LPS-induced NO production in RAW 264.7 cells; experiment: LPS-induced NO production, Griess reaction assay; type: cell-based, mouse; settings: read-out: IC50, inhibition of LPS-induced NO production
# Description: (§1) To obtain plant-derived inhibitors of NO as potential lead compounds for treating inflammation disorders, monoterpene constituents 1–6 isolated from the fruits of A. tsao-ko were assayed to determine their inhibitory activities on LPS-induced NO production in murine macrophage RAW 264.7 cells via the Griess reaction assay, as described previously.
# (§2) Mouse RAW264.7 macrophage cells (TIB-71) were maintained in Dulbecco’s modified Eagle medium (DMEM) supplemented with 10% fetal bovine serum (FBS), 100 U/mL penicillin, and 0.1 mg/mL streptomycin in a humidified incubator with 5% CO2 at 37 °C.
# (§3) The Griess reaction was performed to measure the concentration of nitrite in the medium as an indicator of NO production. RAW264.7 macrophage cells were cultured in a 96-well plate after seeding at a density of 4 × 10^5 cells/well for 24 h in DMEM supplemented with 10% FBS, and stimulated with or without LPS (1 μg/mL, Sigma Aldrich, St. Louis, MO, USA) in the presence or absence of the compounds. After 24 h of incubation at 37 °C, 5% CO2, the cell supernatant was reacted with equal volumes of Griess reagent solutions to determine nitrite production. Absorbance was measured with a microplate reader (Molecular Devices, Sanjose, CA, USA) at 540 nm. Cell viability was confirmed via MTT (Duchefa Biochemie, Haarlem, The Netherlands) assay. The supernatant was removed and medium containing MTT solution (5 mg/mL in phosphate-buffered saline) was added to each well and incubated for 2 h. The medium was removed, and 100 μL of dimethyl sulfoxide (Duchefa Biochemie, Haarlem, The Netherlands) was added to each well to dissolve the purple formazan product to obtain a colored solution. Absorbance was measured at 540 nm with a microplate reader.
# [2] = test system: RAW264.7 macrophage cells; experiment: MTT assay for cell viability; settings: RAW 264.7 cells, LPS-stimulated
# Description: as §1, §2, §3
# iNOS protein expression = experiment: Western blot analysis of iNOS protein expression in LPS-stimulated RAW264.7 cells; type: cell-based, mouse; settings: pretreatment 10, 50, 100 μM for 1 h, then LPS 1 μg/mL 24 h
# Text: L-Arginine-derived NO is an intracellular signaling molecule formed in mammalian cells by different three isoforms of nitric oxide synthase (NOS). The isozymes are referred to as neuronal NOS (nNOS or NOS I), inducible NOS (iNOS or NOS II), and an endothelial NOS (eNOS or NOS III). Excessive generation of NO by iNOS is seen in inflammatory diseases such as autoimmune and chronic inflammatory disorders. To examine the mechanism of NO inhibition by active compound 4, we evaluated iNOS protein expression via western blotting.
# Figure 2 Effects of (1R,4S,6S)-1,6-dihydroxy-2-menthene (compound 4) on iNOS protein and pro-inflammatory cytokine mRNA expression in LPS-stimulated RAW264.7 cells. […] (C,D) Levels of iNOS, IL-1β, and IL-6 mRNAs were determined via RT-PCR. RT-PCR data results were expressed as the fold of changes of the target gene (iNOS, IL-1β, and IL-6) and normalized to the GAPDH. […]
# RAW264.7 cells, plated in 6-well plates (1 × 10^6 cells/well), were treated with compound 4 (10, 50, and 100 μM). […] Protein expression was analyzed via immunoblotting with antibodies against anti-iNOS (cat. no. ab3523; dilution, 1:500, Abcam, Cambridge, UK) and β-actin (cat. no. 5125; dilution, 1:1000, Cell Signaling Technology, Danvers, MA, USA). […] The bands of interest were quantified using the imageJ software.
# iNOS mRNA = experiment: RT-PCR of iNOS mRNA in LPS-stimulated RAW264.7 cells; type: cell-based, mouse; settings: 10, 50, 100 μM for 1 h, then LPS 1 μg/mL 24 h, normalized to GAPDH
# Description: (§4) Figure 2 Effects of (1R,4S,6S)-1,6-dihydroxy-2-menthene (compound 4) on iNOS protein and pro-inflammatory cytokine mRNA expression in LPS-stimulated RAW264.7 cells. RAW264.7 cells were pretreated with different concentrations (10, 50, 100 μM) of compound 4 for 1 h, and then stimulated with 1 µg/mL LPS for 24 h. (A,B) Western blot analysis of iNOS expression in cells treated with compound 4 (10, 50, 100 μM). β-Actin was used as a loading control. (C,D) Levels of iNOS, IL-1β, and IL-6 mRNAs were determined via RT-PCR. RT-PCR data results were expressed as the fold of changes of the target gene (iNOS, IL-1β, and IL-6) and normalized to the GAPDH. Values represent the mean ± SD of three independent experiments. […]
# (§5) Next, we confirmed the effect of compound 4 on the expression of inflammatory factors, i.e., iNOS, IL-1β, and IL-6 in LPS-stimulated RAW264.7 cells. […] We measured the levels of the relevant mRNAs via reverse transcription polymerase chain reaction (RT-PCR). […]
# (§6) RAW264.7 cells, plated in 6-well plates (1 × 10^6 cells/well), were treated with compound 4 (10, 50, and 100 μM) for 1 h prior to LPS, and stimulated with 1 μg/mL LPS or remained unstimulated for 24 h. […] The bands of interest were quantified using the ChemiDoc XRS system and Quantity One software (Bio-Rad Laboratories, Hercules, CA, USA).
# IL-1β mRNA = experiment: RT-PCR of IL-1β mRNA in LPS-stimulated RAW264.7 cells; type: cell-based, mouse; settings: 10, 50, 100 μM for 1 h, then LPS 1 μg/mL 24 h, normalized to GAPDH
# Description: as §4, §5, §6
# IL-6 mRNA = experiment: RT-PCR of IL-6 mRNA in LPS-stimulated RAW264.7 cells; type: cell-based, mouse; settings: 10, 50, 100 μM for 1 h, then LPS 1 μg/mL 24 h, normalized to GAPDH
# Description: as §4, §5, §6
# [3] = Mus musculus, RAW264.7, RAW 264.7 cells, LPS 1 μg/mL, 24 h, Griess reagent
SMILES,"IC50 [1, 3] [µM]",MTT (cell viability) [2] [µM],other results
"O=CC1=CC[C@@H](O)[C@H]2CCC[C@@H]12 [Compound 1, tsaokoin]",,>100,"IC50 ([1]; Mus musculus, RAW264.7, 24 h): > 100 µM"
"CC(=O)O.CNC(=N)NCCC[C@H](N)C(=O)O [NG-methyl-L-arginine acetate, reference compound]",,>100,"IC50 ([1]; RAW 264.7 cells, LPS 1 μg/mL, 24 h, Griess reagent): 34.2 µM"
"CC1=C[C@@H](O)[C@H](C(C)C)C[C@H]1O [Compound 2, (3S,4S,6R)-3,6-dihydroxy-1-menthene]",> 100,>100,

# Second part, led by results:
"IC50 [1, 3] [µM]",SMILES,MTT (cell viability) [2] [µM],other results
> 100,"C=C(C)[C@H]1CC[C@@](C)(O)C[C@@H]1O [Compound 3, (1R,3S,4R)-3-hydroxy isopulegol]",>100,
> 100,"CC(=CCO)CCCC(C)CO (stereo not drawn) [Compound 5, 3,7-dimethyl-2-octene-1,8-diol]",>100,
82.5,"CC(C)[C@H]1C=C[C@@](C)(O)[C@@H](O)C1 [Compound 4, (1R,4S,6S)-1,6-dihydroxy-2-menthene]",>100,"iNOS protein expression (iNOS protein expression): significantly and dose-dependently inhibited iNOS expression; iNOS mRNA expression (iNOS mRNA): decreased the iNOS expression at the mRNA level, in a dose-dependent manner; IL-1β mRNA level (IL-1β mRNA): reduced; IL-6 mRNA level (IL-6 mRNA): reduced"
> 100,"C/C(C=O)=C\CC/C(C)=C/CO [Compound 6, 8-oxogeraniol]",>100,
